Measured values published in patent publication US12286442B2, “Methods and materials for increasing transcription factor eb polypeptide levels” (University of Pittsburgh—Of the Commonwealth System of …, priority 2019, dated 2025).

System: TFEB
Assay: High content screen measuring TFEB nuclear accumulation (TFEB nuclear/cytosol ratio) in BEAS-2B cells stably expressing TFEB-EGFP
Format: cell-based, human
Conditions: 18 hours incubation
How it was run: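 BEAS-2B cells stably expressing TFEB-EGFP (~2300–2500 per well) pre-incubated 8 hours, then exposed to serially diluted compounds (DMEM low glucose, 2% FBS) for 18 hours, PFA-fixed and DAPI-stained. Imaged nuclear (DAPI mask) vs cytosolic (expanded mask) TFEB-GFP; activity = minimal concentration raising nuclear/cytosol ratio by 25%.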

Compound	efficacy (minimal compound concentration needed to increase TFEB nuclear/cytosol ratio by 25%)
N#CCNc1nc(-c2ccncc2)nc2ccccc12 [Compound 169]	+ (“+” equals >25 μM)
c1ccc2c(Nc3ccc4[nH]nnc4c3)nc(-c3ccncc3)nc2c1 [Compound 191]	+++ (“+++” equals ≤1 μM)
c1ccc2c(Nc3ccc4[nH]ccc4c3)nc(-c3ccncc3)cc2c1 [Compound 49]	+ (“+” equals >25 μM)
O=C(NCc1ccco1)c1ccc2c(=O)n(-c3ccccc3)c(=O)n(Cc3cccc(F)c3)c2c1 [Compound 234]	++ (“++” equals between ≤25 μM and >1 μM)
c1ccc2c(Nc3ccc4[nH]ccc4c3)nc(-c3cc[nH]c3)nc2c1 [Compound 104]	+++ (“+++” equals ≤1 μM)
Oc1ccc(-c2nc(Nc3ccc4[nH]ncc4c3)c3ccccc3n2)cc1 [Compound 64]	++ (“++” equals between ≤25 μM and >1 μM)
CCc1cc(F)cc(Nc2nc(-c3ccncc3)nc3ccccc23)c1 [Compound 21]	+ (“+” equals >25 μM)
Fc1cc(Nc2nc(-c3ccncc3)cc3ncccc23)cc2sc(C3CC3)nc12 [Compound 246]	+++ (“+++” equals ≤1 μM)
Cn1ccc2cc(Nc3nc(-c4ccncc4)nc4ccccc34)ccc21 [Compound 26]	+++ (“+++” equals ≤1 μM)
CC(C)c1nc2ccc(Nc3nc(-c4ccncc4)nc4ccccc34)cc2o1 [Compound 374]	++ (“++” equals between ≤25 μM and >1 μM)
c1cc(-c2nc(Nc3ccc4cn[nH]c4c3)c3cnccc3n2)ccn1 [Compound 125]	++ (“++” equals between ≤25 μM and >1 μM)
Cc1nc2ccc(Nc3nc(-c4ccncc4)nc4ccncc34)cc2s1 [Compound 118]	++ (“++” equals between ≤25 μM and >1 μM)
c1cnc2ccc(Nc3nc(-c4cncs4)nc4ccccc34)cc2c1 [Compound 106]	+ (“+” equals >25 μM)
Fc1cccc2c(Nc3ccc4cnsc4c3)nc(-c3ccncc3)nc12 [Compound 382]	+ (“+” equals >25 μM)
c1ccc2c(Nc3ccc4cnccc4c3)nc(-c3ccncc3)nc2c1 [Compound 14]	+ (“+” equals >25 μM)
Fc1cc(F)cc(Nc2nc(-c3ccncc3)nc3ccccc23)c1 [Compound 182]	+ (“+” equals >25 μM)
COc1ccc2c(Nc3cc(F)c4[nH]ccc4c3)nc(-c3ccncc3)nc2c1 [Compound 370]	+++ (“+++” equals ≤1 μM)
c1ccc2c(Nc3ccc4cnccc4c3)nc(-c3cncs3)nc2c1 [Compound 388]	+ (“+” equals >25 μM)
Cc1nc2ccc(Nc3nc(-c4ccncc4)nc4ncccc34)cc2o1 [Compound 146]	+++ (“+++” equals ≤1 μM)
COc1ccc(NC(=O)Cn2c(=O)n(-c3ccc(CC(=O)NCCc4ccccc4)cc3)c(=O)c3ccccc32)cc1 [Compound 221]	+ (“+” equals >25 μM)
c1ccc2c(Nc3cccc4[nH]nnc34)nc(-c3ccncc3)nc2c1 [Compound 101]	+ (“+” equals >25 μM)
Cc1cc(Nc2nc(-c3ccncc3)nc3ccccc23)ccc1N [Compound 58]	++ (“++” equals between ≤25 μM and >1 μM)

System: BEAS-2B cells
Assay: Toxicity: compound concentration needed to induce greater than 50 percent of cell loss
Format: cell-based, human
Conditions: 18 hours incubation
How it was run: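 BEAS-2B cells stably expressing TFEB-EGFP treated with serial compound dilutions for 18 h, then PFA-fixed, DAPI-stained and imaged. Toxicity scored as the concentration causing >50% cell loss, binned as ≥25 μM, <25 and >1 μM, or ≤1 μM ("+++").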

Compound	toxicity (compound concentration needed to induce greater than 50 percent of cell loss)
N#CCNc1nc(-c2ccncc2)nc2ccccc12 [Compound 169]	+ (cell loss of greater than 50 percent at a concentration that equals or is greater than 25 μM was represented as)
c1ccc2c(Nc3ccc4[nH]nnc4c3)nc(-c3ccncc3)nc2c1 [Compound 191]	+ (cell loss of greater than 50 percent at a concentration that equals or is greater than 25 μM was represented as)
c1ccc2c(Nc3ccc4[nH]ccc4c3)nc(-c3ccncc3)cc2c1 [Compound 49]	+ (cell loss of greater than 50 percent at a concentration that equals or is greater than 25 μM was represented as)
O=C(NCc1ccco1)c1ccc2c(=O)n(-c3ccccc3)c(=O)n(Cc3cccc(F)c3)c2c1 [Compound 234]	+ (cell loss of greater than 50 percent at a concentration that equals or is greater than 25 μM was represented as)
c1ccc2c(Nc3ccc4[nH]ccc4c3)nc(-c3cc[nH]c3)nc2c1 [Compound 104]	+ (cell loss of greater than 50 percent at a concentration that equals or is greater than 25 μM was represented as)
Oc1ccc(-c2nc(Nc3ccc4[nH]ncc4c3)c3ccccc3n2)cc1 [Compound 64]	++ (cell loss of greater than 50 percent at a concentration less than 25 μM and greater than 1 μM was represented as)
CCc1cc(F)cc(Nc2nc(-c3ccncc3)nc3ccccc23)c1 [Compound 21]	+ (cell loss of greater than 50 percent at a concentration that equals or is greater than 25 μM was represented as)
Fc1cc(Nc2nc(-c3ccncc3)cc3ncccc23)cc2sc(C3CC3)nc12 [Compound 246]	+ (cell loss of greater than 50 percent at a concentration that equals or is greater than 25 μM was represented as)
Cn1ccc2cc(Nc3nc(-c4ccncc4)nc4ccccc34)ccc21 [Compound 26]	+++ (cell loss of greater than 50 percent at a concentration that equals or is less than 1 μM was represented as “+++.”)
CC(C)c1nc2ccc(Nc3nc(-c4ccncc4)nc4ccccc34)cc2o1 [Compound 374]	+ (cell loss of greater than 50 percent at a concentration that equals or is greater than 25 μM was represented as)
c1cc(-c2nc(Nc3ccc4cn[nH]c4c3)c3cnccc3n2)ccn1 [Compound 125]	+ (cell loss of greater than 50 percent at a concentration that equals or is greater than 25 μM was represented as)
Cc1nc2ccc(Nc3nc(-c4ccncc4)nc4ccncc34)cc2s1 [Compound 118]	+ (cell loss of greater than 50 percent at a concentration that equals or is greater than 25 μM was represented as)
c1cnc2ccc(Nc3nc(-c4cncs4)nc4ccccc34)cc2c1 [Compound 106]	+ (cell loss of greater than 50 percent at a concentration that equals or is greater than 25 μM was represented as)
Fc1cccc2c(Nc3ccc4cnsc4c3)nc(-c3ccncc3)nc12 [Compound 382]	+ (cell loss of greater than 50 percent at a concentration that equals or is greater than 25 μM was represented as)
c1ccc2c(Nc3ccc4cnccc4c3)nc(-c3ccncc3)nc2c1 [Compound 14]	+ (cell loss of greater than 50 percent at a concentration that equals or is greater than 25 μM was represented as)
Fc1cc(F)cc(Nc2nc(-c3ccncc3)nc3ccccc23)c1 [Compound 182]	+ (cell loss of greater than 50 percent at a concentration that equals or is greater than 25 μM was represented as)
COc1ccc2c(Nc3cc(F)c4[nH]ccc4c3)nc(-c3ccncc3)nc2c1 [Compound 370]	+ (cell loss of greater than 50 percent at a concentration that equals or is greater than 25 μM was represented as)
c1ccc2c(Nc3ccc4cnccc4c3)nc(-c3cncs3)nc2c1 [Compound 388]	+ (cell loss of greater than 50 percent at a concentration that equals or is greater than 25 μM was represented as)
Cc1nc2ccc(Nc3nc(-c4ccncc4)nc4ncccc34)cc2o1 [Compound 146]	+ (cell loss of greater than 50 percent at a concentration that equals or is greater than 25 μM was represented as)
COc1ccc(NC(=O)Cn2c(=O)n(-c3ccc(CC(=O)NCCc4ccccc4)cc3)c(=O)c3ccccc32)cc1 [Compound 221]	+ (cell loss of greater than 50 percent at a concentration that equals or is greater than 25 μM was represented as)
c1ccc2c(Nc3cccc4[nH]nnc34)nc(-c3ccncc3)nc2c1 [Compound 101]	+ (cell loss of greater than 50 percent at a concentration that equals or is greater than 25 μM was represented as)
Cc1cc(Nc2nc(-c3ccncc3)nc3ccccc23)ccc1N [Compound 58]	+ (cell loss of greater than 50 percent at a concentration that equals or is greater than 25 μM was represented as)
